Assay results taken from PubChem BioAssay (NCI).
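Exposure lasted 48 hours, with cells grown in 96-well plates and compounds tested at five concentrations. Definition used: TGI = concentration required for complete inhibition of growth.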

How the values were obtained:
Assay in all cases: DTP human tumour cell line panel, 48 h
HCT-116 colon = tested on: HCT-116 colon
NCI-H23 lung = tested on: NCI-H23 lung
RPMI-8226 leukemia = tested on: RPMI-8226 leukemia
CAKI-1 renal = tested on: CAKI-1 renal
NCI-H522 lung = tested on: NCI-H522 lung
SW-620 colon = tested on: SW-620 colon
SK-MEL-28 melanoma = tested on: SK-MEL-28 melanoma
XF 498 CNS = tested on: XF 498 CNS
TK-10 renal = tested on: TK-10 renal
NCI-H460 lung = tested on: NCI-H460 lung
ACHN renal = tested on: ACHN renal
OVCAR-8 ovarian = tested on: OVCAR-8 ovarian
HCT-15 colon = tested on: HCT-15 colon
MALME-3M melanoma = tested on: MALME-3M melanoma
UO-31 renal = tested on: UO-31 renal
HL-60(TB) leukemia = tested on: HL-60(TB) leukemia
HOP-92 NSCLC = tested on: HOP-92 NSCLC
LXFL 529 NSCLC = tested on: LXFL 529 NSCLC
SNB-75 CNS = tested on: SNB-75 CNS
EKVX NSCLC = tested on: EKVX NSCLC
OVCAR-5 ovarian = tested on: OVCAR-5 ovarian
SNB-78 CNS = tested on: SNB-78 CNS
DMS 114 small cell lung = tested on: DMS 114 small cell lung
MOLT-4 leukemia = tested on: MOLT-4 leukemia
OVCAR-4 ovarian = tested on: OVCAR-4 ovarian
KM20L2 colon = tested on: KM20L2 colon
SF-295 CNS = tested on: SF-295 CNS
M14 melanoma = tested on: M14 melanoma
LOX IMVI melanoma = tested on: LOX IMVI melanoma
SF-268 CNS = tested on: SF-268 CNS
DLD-1 colon = tested on: DLD-1 colon
SK-MEL-2 melanoma = tested on: SK-MEL-2 melanoma
OVCAR-3 ovarian = tested on: OVCAR-3 ovarian
SF-539 CNS = tested on: SF-539 CNS
CCRF-CEM leukemia = tested on: CCRF-CEM leukemia
COLO 205 colon = tested on: COLO 205 colon
K-562 leukemia = tested on: K-562 leukemia
SR leukemia = tested on: SR leukemia
A549 NSCLC = tested on: A549 NSCLC
UACC-257 melanoma = tested on: UACC-257 melanoma
SNB-19 CNS = tested on: SNB-19 CNS
U251 CNS = tested on: U251 CNS
786-0 renal = tested on: 786-0 renal
KM12 colon = tested on: KM12 colon
HT29 colon = tested on: HT29 colon
IGROV1 ovarian = tested on: IGROV1 ovarian
UACC-62 melanoma = tested on: UACC-62 melanoma
DMS 273 small cell lung = tested on: DMS 273 small cell lung
HOP-18 NSCLC = tested on: HOP-18 NSCLC
SN12C renal = tested on: SN12C renal
NCI-H226 lung = tested on: NCI-H226 lung
SK-OV-3 ovarian = tested on: SK-OV-3 ovarian
HCC-2998 colon = tested on: HCC-2998 colon
M19-MEL melanoma = tested on: M19-MEL melanoma

Measured: TGI

CC(Cn1c2c3ccccc3ccc2c2oc(=O)c3ccccc3c21)N(C)C (stereo not drawn)
> 100 µM: HCT-116 colon | NCI-H23 lung | RPMI-8226 leukemia | CAKI-1 renal | NCI-H522 lung | SW-620 colon | SK-MEL-28 melanoma | XF 498 CNS | TK-10 renal | NCI-H460 lung | ACHN renal | OVCAR-8 ovarian | HCT-15 colon | MALME-3M melanoma | UO-31 renal | HL-60(TB) leukemia | HOP-92 NSCLC | LXFL 529 NSCLC | SNB-75 CNS | EKVX NSCLC | OVCAR-5 ovarian | SNB-78 CNS | DMS 114 small cell lung | MOLT-4 leukemia | OVCAR-4 ovarian | KM20L2 colon | SF-295 CNS | M14 melanoma | LOX IMVI melanoma | SF-268 CNS | DLD-1 colon | SK-MEL-2 melanoma | OVCAR-3 ovarian | SF-539 CNS | CCRF-CEM leukemia | COLO 205 colon | K-562 leukemia | SR leukemia | A549 NSCLC | UACC-257 melanoma | SNB-19 CNS | U251 CNS | 786-0 renal | KM12 colon | HT29 colon | IGROV1 ovarian | UACC-62 melanoma

O=C1C=CC(=O)c2c1ccc1c3ccccc3n(-c3ccccn3)c21
77.1 µM: HT29 colon
35.6 µM: ACHN renal
37.3 µM: UACC-257 melanoma
29.1 µM: HOP-18 NSCLC
31.4 µM: HL-60(TB) leukemia
28.5 µM: LXFL 529 NSCLC | 786-0 renal
> 100 µM: NCI-H23 lung | RPMI-8226 leukemia | DMS 273 small cell lung | SK-MEL-28 melanoma | NCI-H460 lung | OVCAR-8 ovarian | SN12C renal | SNB-75 CNS | OVCAR-5 ovarian | SNB-78 CNS | SF-295 CNS | SF-268 CNS | SK-MEL-2 melanoma | CCRF-CEM leukemia | A549 NSCLC | U251 CNS | SK-OV-3 ovarian | HCC-2998 colon | KM12 colon
32.7 µM: MALME-3M melanoma
87.9 µM: M14 melanoma
25.9 µM: HCT-116 colon
51.1 µM: K-562 leukemia
41.6 µM: M19-MEL melanoma
35.8 µM: UO-31 renal
8.67 µM: NCI-H522 lung
40.2 µM: DMS 114 small cell lung
30.6 µM: DLD-1 colon
30.2 µM: COLO 205 colon
84.5 µM: MOLT-4 leukemia
68.2 µM: SF-539 CNS
63.8 µM: OVCAR-3 ovarian
29.3 µM: XF 498 CNS
43.4 µM: EKVX NSCLC
29.9 µM: HOP-92 NSCLC
29.8 µM: OVCAR-4 ovarian
35.3 µM: HCT-15 colon
82.7 µM: NCI-H226 lung
30.5 µM: TK-10 renal
